This is an account of results in ChEMBL document CHEMBL1201862, “PubChem BioAssay data set” (2004).

In one test the target is Cytochrome P450 3A4 (Homo sapiens, UniProt P08684).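 Note: CYP3A4 tested as one member of a cytochrome P450 panel screen.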
The next test concerns the target Prothrombin (Homo sapiens, UniProt P00734). Nature of the test: Thrombin 1536 HTS Dose Response Confirmation. [Related pubchem assays: 1046 (Thrombin 1536 HTS; hits were confirmed in this assay)]. In kind it is functional.
For another test, the target named is T1, Caspase-6 (Homo sapiens, UniProt P55212).
T1 sequence (P55212 whole entry): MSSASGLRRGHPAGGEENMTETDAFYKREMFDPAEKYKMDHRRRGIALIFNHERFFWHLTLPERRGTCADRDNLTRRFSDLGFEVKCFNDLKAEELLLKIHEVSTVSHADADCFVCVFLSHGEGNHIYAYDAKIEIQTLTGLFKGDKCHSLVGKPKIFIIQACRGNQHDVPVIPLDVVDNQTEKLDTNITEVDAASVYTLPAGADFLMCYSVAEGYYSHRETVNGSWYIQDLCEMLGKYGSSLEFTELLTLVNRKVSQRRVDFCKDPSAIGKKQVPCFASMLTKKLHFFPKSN
Nature of the test: inhibition of CASP6 peptide cleavage – biochemical, VEID-R110 fluorescence, cherry-pick, dose response (AID 720632).

Test [1] is described as follows: Luminescence Cell-Based Dose Response HTS to Identify Activators of Luciferase Translation or Activity in H4 […] Cells. [Related pubchem assays: 1829 (Project Summary), 1814 (Primary HTS)]. In kind it is functional.
A short description of test [2]: Luminescence Cell-Based Dose Confirmation HTS to Identify Activators of 5'UTR Stem-Loop Driven Alpha-Synuclein mRNA Translation in H4 Neuroglioblastoma Cells. [Related pubchem assays: 1829 (Project Summary), 1814 (Primary HTS)]. In kind it is functional.
The next test deals with H4. Nature of the test: Luminescence Cell-Based Dose Response HTS to Identify Activators of 5'UTR Stem-Loop Driven Prion Protein mRNA Translation in H4 Neuroglioblastoma Cells. [Related pubchem assays: 1829 (Project Summary), 1814 (Primary HTS)]. In kind it is functional. The settings on record: Homo sapiens.
Test [3] can be described thus: M. tuberculosis H37Rv growth inhibitors, H37Rv strain (AID 1626). It is filed as functional.
Test [4] has as its target Mitogen-activated protein kinase 10 (Homo sapiens, UniProt P53779). In words: Dose response biochemical screening assay for inhibitors of c-Jun N-Terminal Kinase 3 (JNK3). [Related pubchem assays: 746 ].
A short description of test [5]: Luminescence Cell-Based Dose Confirmation to Identify Activators of 5'UTR Stem-Loop Driven Alpha-Synuclein mRNA Translation in H4 Neuroglioblastoma Cells. [Related pubchem assays: 1829 (Project Summary), 1814 (Primary HTS)]. It is filed as functional.
The next test addresses T2, Caspase-3 (Homo sapiens, UniProt P42574).
T2 sequence (P42574 whole entry): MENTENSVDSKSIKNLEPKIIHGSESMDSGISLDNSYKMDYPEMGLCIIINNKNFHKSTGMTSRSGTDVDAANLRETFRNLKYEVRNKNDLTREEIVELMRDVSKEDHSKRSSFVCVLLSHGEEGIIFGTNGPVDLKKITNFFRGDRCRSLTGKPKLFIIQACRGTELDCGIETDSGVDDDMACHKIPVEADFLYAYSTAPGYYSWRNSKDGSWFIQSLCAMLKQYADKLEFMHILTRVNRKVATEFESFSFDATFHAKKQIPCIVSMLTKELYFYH
In kind it is functional.

Test [6] can be described thus: Luminescence Cell-Based Dose Response to Identify Activators of 5'UTR Stem-Loop Driven Prion Protein mRNA Translation in H4-C Neuroglioblastoma Cells. [Related pubchem assays: 1829 (Project Summary), 1814 (Primary HTS)]. In kind it is functional.
The target of test [7] is T3, Sentrin-specific protease 7 (Homo sapiens, UniProt Q9BQF6).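 Note: Luminescence-based dose-response confirmation of ultra-high-throughput screening hits, measuring inhibition of SENP7.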
T3 sequence (Q9BQF6 whole entry): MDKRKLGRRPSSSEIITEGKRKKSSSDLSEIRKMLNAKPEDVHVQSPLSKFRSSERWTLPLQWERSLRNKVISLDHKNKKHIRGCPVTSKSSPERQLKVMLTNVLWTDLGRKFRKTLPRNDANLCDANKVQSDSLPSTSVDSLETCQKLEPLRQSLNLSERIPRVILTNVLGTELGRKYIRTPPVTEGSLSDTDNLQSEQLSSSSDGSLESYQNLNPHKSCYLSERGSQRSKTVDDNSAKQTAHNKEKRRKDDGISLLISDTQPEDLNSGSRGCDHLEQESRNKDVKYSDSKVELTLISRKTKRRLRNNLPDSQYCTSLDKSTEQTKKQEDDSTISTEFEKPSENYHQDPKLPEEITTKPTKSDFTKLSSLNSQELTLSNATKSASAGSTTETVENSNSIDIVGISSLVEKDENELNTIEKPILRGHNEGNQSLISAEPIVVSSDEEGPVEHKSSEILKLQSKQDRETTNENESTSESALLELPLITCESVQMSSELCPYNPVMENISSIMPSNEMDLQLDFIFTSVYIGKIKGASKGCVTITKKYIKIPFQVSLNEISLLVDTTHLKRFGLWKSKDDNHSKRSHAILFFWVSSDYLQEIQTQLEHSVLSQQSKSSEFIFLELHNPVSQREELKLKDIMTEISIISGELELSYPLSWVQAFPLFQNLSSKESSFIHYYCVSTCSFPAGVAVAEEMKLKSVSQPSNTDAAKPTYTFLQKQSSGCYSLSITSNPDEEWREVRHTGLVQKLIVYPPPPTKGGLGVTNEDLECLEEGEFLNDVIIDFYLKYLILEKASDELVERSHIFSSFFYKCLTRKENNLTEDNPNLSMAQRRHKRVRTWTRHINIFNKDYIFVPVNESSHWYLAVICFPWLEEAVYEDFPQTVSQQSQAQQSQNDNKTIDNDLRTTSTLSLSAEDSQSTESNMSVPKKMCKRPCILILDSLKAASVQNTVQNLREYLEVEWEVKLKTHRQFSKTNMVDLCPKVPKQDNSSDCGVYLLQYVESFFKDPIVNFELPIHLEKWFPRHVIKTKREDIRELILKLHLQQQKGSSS
In kind it is functional.

The target of test [8] is T4, Sentrin-specific protease 6 (Homo sapiens, UniProt Q9GZR1).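 Note: Luminescence-based dose-response confirmatory assay of SENP6 inhibition, following up an ultra-high-throughput screen.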
T4 sequence (Q9GZR1 whole entry): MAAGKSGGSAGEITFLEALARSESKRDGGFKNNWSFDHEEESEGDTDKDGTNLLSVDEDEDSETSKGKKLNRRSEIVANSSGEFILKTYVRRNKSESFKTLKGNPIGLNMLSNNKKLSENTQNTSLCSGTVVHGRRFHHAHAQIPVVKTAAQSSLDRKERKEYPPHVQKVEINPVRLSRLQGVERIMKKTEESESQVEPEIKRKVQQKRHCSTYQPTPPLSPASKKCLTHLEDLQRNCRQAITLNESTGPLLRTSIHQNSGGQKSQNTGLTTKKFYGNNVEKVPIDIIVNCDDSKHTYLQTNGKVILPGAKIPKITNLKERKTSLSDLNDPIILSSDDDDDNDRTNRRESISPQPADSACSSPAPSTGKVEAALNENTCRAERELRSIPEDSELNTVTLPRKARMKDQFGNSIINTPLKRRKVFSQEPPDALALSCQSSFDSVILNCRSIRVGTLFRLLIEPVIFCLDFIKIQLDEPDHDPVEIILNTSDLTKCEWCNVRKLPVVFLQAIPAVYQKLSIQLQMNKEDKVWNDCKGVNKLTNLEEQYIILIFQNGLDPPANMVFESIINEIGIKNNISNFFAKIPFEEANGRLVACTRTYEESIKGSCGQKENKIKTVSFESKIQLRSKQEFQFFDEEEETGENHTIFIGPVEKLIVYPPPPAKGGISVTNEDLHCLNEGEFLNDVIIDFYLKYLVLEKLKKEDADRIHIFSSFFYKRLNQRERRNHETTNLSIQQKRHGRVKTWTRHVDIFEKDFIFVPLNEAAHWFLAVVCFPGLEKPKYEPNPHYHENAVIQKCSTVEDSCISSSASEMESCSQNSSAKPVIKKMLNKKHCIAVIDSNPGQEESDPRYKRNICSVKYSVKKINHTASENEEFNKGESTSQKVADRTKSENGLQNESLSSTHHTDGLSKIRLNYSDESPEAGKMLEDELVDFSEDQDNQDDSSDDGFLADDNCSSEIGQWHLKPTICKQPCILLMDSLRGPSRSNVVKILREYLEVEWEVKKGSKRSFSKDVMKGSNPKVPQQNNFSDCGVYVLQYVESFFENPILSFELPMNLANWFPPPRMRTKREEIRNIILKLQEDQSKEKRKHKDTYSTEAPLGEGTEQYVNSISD
In kind it is functional.

Test [9] deals with T5, Sentrin-specific protease 8 (Homo sapiens, UniProt Q96LD8).
T5 sequence (Q96LD8 whole entry): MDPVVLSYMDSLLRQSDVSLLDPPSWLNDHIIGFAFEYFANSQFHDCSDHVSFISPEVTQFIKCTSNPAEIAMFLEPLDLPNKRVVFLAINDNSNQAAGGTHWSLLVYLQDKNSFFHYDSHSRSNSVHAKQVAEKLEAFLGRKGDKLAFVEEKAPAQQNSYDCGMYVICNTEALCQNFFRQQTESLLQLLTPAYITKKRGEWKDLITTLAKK
In kind it is functional.

Test [10] in a line: Luminescence Cell-Based Dose Response to Identify Activators of Luciferase Translation or Activity in H4-C Neuroglioblastoma Cells. [Related pubchem assays: 1829 (Project Summary), 1814 (Primary HTS)]. In kind it is functional.
Test [11] is described as follows: toxicity to human hepatoma HepG2 cells – cell-based, cherry-picked samples, cytotoxicity control, dose response (AID 1159577). In kind it is functional.
Test [12] in a line: P. falciparum Dd2 growth inhibitors, dose response, SYBR Green, cherry-picked samples (AID 1159567). In kind it is functional, cell-based.
Test [13] in a line: Dd2 malaria parasite growth inhibition potency – SYBR Green, dry powder samples, dose response (AID 1159566).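 Note: potency for growth inhibition with lower SYBR green DNA signal.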 In kind it is functional, cell-based.
Test [14] is described as follows: growth inhibition of PfATP4-mutant resistant parasites – NITD609-resistant line, SYBR Green, dry powder, dose response (AID 1159571).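 Note: parasites synchronized at ring stage by sorbitol before testing.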 It is filed as functional, cell-based.
The nature of test [15]: growth inhibition of yeast DHODH-expressing 3D7 parasites – SYBR Green, dry powder samples, dose response (AID 1159570).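 Note: parasite growth measured after 72 hours of compound exposure.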 It is filed as functional, cell-based.

Activity calls are given as the source filed them.

Chain of Mitogen-activated protein kinase 10 (P53779 whole entry): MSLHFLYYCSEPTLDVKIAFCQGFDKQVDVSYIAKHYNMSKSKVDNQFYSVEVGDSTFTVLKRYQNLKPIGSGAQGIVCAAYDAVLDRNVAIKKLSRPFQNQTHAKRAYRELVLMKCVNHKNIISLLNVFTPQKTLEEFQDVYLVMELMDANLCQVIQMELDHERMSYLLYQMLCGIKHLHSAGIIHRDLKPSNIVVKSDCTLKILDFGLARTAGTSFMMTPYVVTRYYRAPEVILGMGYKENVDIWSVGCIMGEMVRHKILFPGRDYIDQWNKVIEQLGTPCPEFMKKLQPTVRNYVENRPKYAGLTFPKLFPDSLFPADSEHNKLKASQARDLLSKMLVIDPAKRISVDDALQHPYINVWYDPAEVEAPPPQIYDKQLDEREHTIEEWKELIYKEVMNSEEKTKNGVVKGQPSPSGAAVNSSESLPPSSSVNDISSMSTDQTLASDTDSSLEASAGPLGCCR
Chain of Cytochrome P450 3A4 (P08684 whole entry): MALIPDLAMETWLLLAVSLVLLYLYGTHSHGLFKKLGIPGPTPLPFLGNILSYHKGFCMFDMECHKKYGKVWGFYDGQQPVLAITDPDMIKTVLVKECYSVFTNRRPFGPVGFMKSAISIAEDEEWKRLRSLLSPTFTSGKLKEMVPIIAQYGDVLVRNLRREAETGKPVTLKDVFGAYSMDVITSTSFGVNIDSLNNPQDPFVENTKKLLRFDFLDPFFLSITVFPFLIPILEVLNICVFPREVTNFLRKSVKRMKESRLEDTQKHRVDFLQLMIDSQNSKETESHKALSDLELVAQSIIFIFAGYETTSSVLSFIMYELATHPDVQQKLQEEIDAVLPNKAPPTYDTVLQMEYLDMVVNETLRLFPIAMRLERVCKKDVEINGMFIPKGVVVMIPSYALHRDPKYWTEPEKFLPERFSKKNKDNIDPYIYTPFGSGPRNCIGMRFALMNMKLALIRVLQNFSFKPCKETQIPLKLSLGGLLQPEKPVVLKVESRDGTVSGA

The AC50 is the concentration at which the activity in the assay is half-maximal. A word on the IC50: it is the point on the concentration scale where inhibition reaches its midpoint. As for `COC(=O)CSc1nnc(-c2ccccc2OC)n1-c1ccc(C)cc1`, the AC50 on Cytochrome P450 3A4 was 15.8 µM (inconclusive). Also, the IC50 against Prothrombin was > 50 µM (not active).
With `Cc1ccc(C)n1-c1sc2c(c1C(=O)O)CCCC2`, the concentration at half-maximal activity (AC50) at Caspase-6 was 6.02 µM (active).
Same read-out and setting: the same measure for `O=C1c2ccccc2C(=O)c2c([N+](=O)[O-])ccc(O)c21`: 9.76 µM (active).
For orientation: EC50 means the concentration that produces a half-maximal response. Take `COc1ccc(NC(=O)n2nc(OC(=O)c3cccs3)cc2N)cc1`: the EC50 in test [1] was 12100 nM (active); in [2], > 60 µM (not active); with H4, 28.1 µM (active). Also, the IC50 at Prothrombin is 12.7 µM (active).
In the case of `CC(C(=O)N=Nc1c(O)[nH]c2ccccc12)n1cnc2ccccc2c1=O` (stereo not given), the IC50 in the test “cells” is > 50 µM (active).
Consider `CCN(Cc1nc(O)c2ccccc2n1)C(=O)c1cc(C2CC2)nn1-c1ccccc1`, for which the half-maximal inhibitory concentration (IC50) in the test “cells” was 8.79 µM (active).
In the case of `Nc1nc(COc2ccc(Cl)cc2)cs1`, the IC50 in test [3] was > 100 µM (active).
With `O=C(CCCCCn1c(SCC(=O)c2ccccc2)nc2ccccc2c1=O)NCc1ccco1`, the IC50 in test [4] was 38.9 µM (not active).
Turning to `CCCc1nc2sc3ccccc3c(=O)c2c(=O)n1Cc1ccc(OC)cc1`, the IC50 in test [3] was > 100 µM (active).
On to `COc1ccc(OC)c(C(=O)c2coc3ccc(O)cc23)c1`, for which the IC50 in [4] is listed as > 93.1 µM (not active).
As to `Cc1ccc(OCc2nc(-c3ccccc3)no2)c(C)c1`, the EC50 in test [5] was 8.27 µM (active); in test [6], 1.03 µM (active); in test [10] it was > 12 µM (not active); in test [1], < 100 nM (active). Further, the IC50 is 28.9 µM (active) on Caspase-3, 7.65 µM (active) in test [7], 11.8 µM (active) in test [8] and 62 µM (active) in test [9].
In the case of `COC(=O)c1n[nH]c(NC(=O)c2ccccc2Br)n1`, the IC50 at Prothrombin was 0.082 µM (active).
Regarding `Nc1nnc(CC(=O)N/N=C/c2cccc(OCCOc3ccccc3)c2)s1`, the EC50 in test [5] was 0.38 µM (active); in [6], 1.25 µM (active); in test [10], 0.88 µM (active); in test [1], < 100 nM (active); in the test with H4, 21.8 µM (active).
For `CCOc1nn(-c2ccccc2)c(O)c1/C=N/c1ccc(OC)cc1`, the IC50 in [3] was > 100 µM (active).
`COc1cccc(S(=O)(=O)Nc2ccc3c(c2)[C@@H]2C[C@H](CC(=O)NCc4cccc(F)c4)O[C@@H](CO)[C@@H]2O3)c1`: the AC50 was 22.7 µM (active) in test [11] and 6.43 µM (active) in test [12].
Take `C[C@@H]1CN([C@H](C)CO)C(=O)c2c(c3ccccc3n2C)-c2ccccc2CO[C@H]1CN(C)Cc1ccc(Cl)c(Cl)c1`: the AC50 in test [11] is 30 µM (active); in test [12] it was 3.7 µM (active).
With `CC(C)CNC[C@@H]1[C@@H](c2ccccc2)[C@@H](CO)N1Cc1ccc(F)cc1`, the AC50 in test [13] is 409 nM (active); in test [12], 1.33 µM (active); in test [14], 727 nM (active); in [15], 3.03 µM (active).
Turning to `COc1ccc2c3c(n(C)c2c1)[C@H](CO)N(CC1CCCCC1)CC31CCN(Cc2nccs2)CC1`, the AC50 in test [13] is 1620 nM (active); in test [12], 1.94 µM (active); in test [14], 1520 nM (active); in test [15], 1.26 µM (active).
`O=C(C1CCCCC1)N1CC(=O)N2[C@H](C1)[C@@H](c1ccc(C#Cc3cccc(F)c3)cc1)[C@@H]2CO`: the AC50 is > 39 µM (inactive) in test [11] and 4.26 µM (active) in test [12].
Turning to `CC(=O)Nc1cccc2cc(S(=O)(=O)O)ccc12`, the concentration at half-maximal activity (AC50) at Caspase-6 was 15.6 µM (active).
As to `CCOC(=O)c1ccc(NC(=O)N2CCN(Cc3ccccc3)CC2)cc1`, the IC50 in [3] was > 100 µM (active).
